Laboratory results taken from patent US9181189B2, “Lipogenesis inhibitor compounds” (PIERRE FABRE DERMO-COSMETIQUE, priority 2011, dated 2015).

Assays:
[1] = tested on: differentiated sebocytes (Tel-E6E7 line); experiment: Production of intracellular lipids by differentiated sebocytes (Nile Red / Adipored quantitation); assay type: cell-based, human; conditions: for production of lipids by the sebocytes: Tel-E6E7 line differentiated 7 days in the presence of testosterone and other supplements, FIG. 1; for inhibitor effect on lipogenesis directly induced by DHT: Tel-E6E7 line differentiated in the presence of DHT and other supplements, FIG. 2
Method: The Tel-E6E7 line (courtesy of Dr. Stephen Lyle, University of Massachusetts, USA) is a human epithelial line derived from stem cells of the hair follicle bulb.
Differentiation into sebocytes of the Tel-E6E7 line was conducted under the conditions described by S. Lyle. The cells were seeded in 24-well plates at a density of 25 000 cells/cm^2 in DME medium supplemented with 46% HamF12 medium, 6% foetal calf serum (FCII, Hyclone), 2% human serum and 10 nM EGF. Two days after seeding, the differentiation of the cells into sebocytes was induced by adding the following supplements to the culture medium: 0.1 μM testosterone (or DHT (0.1 μM)), 1 μM Troglitazone, 100 μM WyA4643 and 10 nM Insulin. The derivatives to be tested were added at the same time. Sebocyte differentiation was continued for 7 days. The culture medium and the derivatives to be tested were renewed every 2-3 days. The production of intracellular lipids was measured by quantitation of the Nile Red marker (Adipored kit, Lonza) and following the manufacturer's instructions. The amount of measured fluorescence (Relative Fluorescence Units) is proportional to the quantity of accumulated neutral intracellular lipids. All tested conditions were performed in duplicate and repeated three times.
The inventors studied the variations in lipid levels produced by the sebocytes after a differentiation time of 7 days in the presence of testosterone treated with the derivatives of the present invention.

type-1 5-α-reductase = target: T1, type-1 5-α-reductase (Homo sapiens, UniProt P18405); conditions: fibroblast cultures; cited from earlier work
T1 construct: endogenous in cells
T1 sequence (P18405 1-259): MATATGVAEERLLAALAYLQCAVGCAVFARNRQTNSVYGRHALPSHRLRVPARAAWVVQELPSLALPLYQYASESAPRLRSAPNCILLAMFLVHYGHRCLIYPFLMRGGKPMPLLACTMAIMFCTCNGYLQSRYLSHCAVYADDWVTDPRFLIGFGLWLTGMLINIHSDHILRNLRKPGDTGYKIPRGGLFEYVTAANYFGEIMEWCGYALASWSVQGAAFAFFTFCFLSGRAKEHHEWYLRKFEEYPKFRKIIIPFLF

Compound | production of lipids by the sebocytes ([1]; 10 μM) | inhibitor effect on lipogenesis directly induced by DHT [1] | production of lipids by the sebocytes ([1]; 5 μM) | inhibiting effect on type-1 5-α-reductase (type-1 5-α-reductase)
CCCCCCCCCCCC(=O)OCC(O)COC(=O)C1CCCNC1 (centres unmarked) [3-(dodecanoyloxy)-2-hydroxypropyl piperidine-3-carboxylate] | significant decrease | – | – | –
O=C(O)c1cccnc1 [nicotinic acid] | – | do not show any inhibitor effect | – | –
O=C(O)C1CCCNC1 (centres unmarked) [nipecotic acid] | – | do not show any inhibitor effect | – | –
CCCCCCCCCCCC(=O)OCC(O)CO (centres unmarked) [glyceryl laurate, 2,3-dihydroxypropyl dodecanoate] | does not reach the significance threshold | – | does not reach the significance threshold | inhibiting effect
CCCCCCCCCCCC(=O)OCC(O)COC(=O)c1cccnc1 (centres unmarked) [glyceryl laurate nicotinate, 3-(dodecanoyloxy)-2-hydroxypropyl nicotinate] | decreases most significantly | – | decreases most significantly | –
